From the NIST ThermoML archive (doi:10.1016/j.fluid.2007.05.029)
Numbers after ± are expanded uncertainties.

Legend:
[1] = xn = mol fraction of the nth substance listed

CCCCC(O)CO (stereo unspecified) [1,2-hexanediol]
Conditions	surface tension liquid-gas [mN/m]
283.15 K	24.7 ± 0.8
288.15 K	24.4 ± 0.8
293.15 K	24.1 ± 0.8
298.15 K	23.8 ± 0.8
303.15 K	23.6 ± 0.8
308.15 K	23.3 ± 0.8

CCCCC(O)CO (stereo unspecified) [1,2-hexanediol] + O
surface tension liquid-gas [mN/m], [1]
Conditions	283.15 K	288.15 K	293.15 K	298.15 K	303.15 K	308.15 K
x1 = 0.001	55.1 ± 1	54.5 ± 1	54.3 ± 1	53.8 ± 1	53.3 ± 1	52.7 ± 0.9
x1 = 0.0016	47.5 ± 0.9	47.3 ± 0.9	47 ± 0.9	46.6 ± 0.9	46.3 ± 0.9	45.6 ± 0.9
x1 = 0.002	45.1 ± 0.9	44.5 ± 0.9	43.9 ± 0.9	43.4 ± 0.9	42.8 ± 0.9	42.3 ± 0.9
x1 = 0.0034	41.6 ± 0.9	40.6 ± 0.9	40 ± 0.9	39.3 ± 0.9	38.5 ± 0.9	38.1 ± 0.9
x1 = 0.0052	37.3 ± 0.9	36.3 ± 0.8	35.5 ± 0.8	34.7 ± 0.8	33.8 ± 0.8	33 ± 0.8
x1 = 0.0077	32.2 ± 0.8	31.4 ± 0.8	30.8 ± 0.8	30 ± 0.8	29.5 ± 0.8	28.9 ± 0.8
x1 = 0.0108	28.7 ± 0.8	28.1 ± 0.8	27.7 ± 0.8	27.2 ± 0.8	26.8 ± 0.8	26.4 ± 0.8
x1 = 0.014	27.6 ± 0.8	26.9 ± 0.8	26.3 ± 0.8	25.7 ± 0.8	25.2 ± 0.8	24.8 ± 0.8
x1 = 0.0175	26.4 ± 0.8	25.9 ± 0.8	25.7 ± 0.8	25.3 ± 0.8	24.8 ± 0.8	24.4 ± 0.8
x1 = 0.0251	26.2 ± 0.8	25.9 ± 0.8	25.5 ± 0.8	25.2 ± 0.8	25 ± 0.8	24.7 ± 0.8
x1 = 0.036	25.7 ± 0.8	25.5 ± 0.8	25.2 ± 0.8	25 ± 0.8	24.7 ± 0.8	24.5 ± 0.8
x1 = 0.046	25.7 ± 0.8	25.4 ± 0.8	25.2 ± 0.8	24.9 ± 0.8	24.7 ± 0.8	24.4 ± 0.8
x1 = 0.0514	25.7 ± 0.8	25.4 ± 0.8	25.2 ± 0.8	24.9 ± 0.8	24.7 ± 0.8	24.4 ± 0.8
x1 = 0.0655	25.6 ± 0.8	25.4 ± 0.8	25.1 ± 0.8	24.9 ± 0.8	24.4 ± 0.8	24.1 ± 0.8
x1 = 0.0831	25.6 ± 0.8	25.3 ± 0.8	25.1 ± 0.8	24.8 ± 0.8	24.5 ± 0.8	24.1 ± 0.8
x1 = 0.0968	25.1 ± 0.8	24.9 ± 0.8	24.6 ± 0.8	24.4 ± 0.8	24.3 ± 0.8	24 ± 0.8
x1 = 0.1119	24.9 ± 0.8	24.7 ± 0.8	24.4 ± 0.8	24.1 ± 0.8	23.9 ± 0.8	23.6 ± 0.8
x1 = 1	24.7 ± 0.8	24.4 ± 0.8	24.1 ± 0.8	23.8 ± 0.8	23.6 ± 0.8	23.3 ± 0.8

CC(O)CCCCO (stereo unspecified) [1,5-hexanediol]
Conditions	surface tension liquid-gas [mN/m]
283.15 K	34.6 ± 0.9
288.15 K	34.3 ± 0.8
293.15 K	34.1 ± 0.8
298.15 K	33.9 ± 0.8
303.15 K	33.7 ± 0.8
308.15 K	33.5 ± 0.8

CC(O)CCCCO (stereo unspecified) [1,5-hexanediol] + O
surface tension liquid-gas [mN/m], [1]
Conditions	283.15 K	288.15 K	293.15 K	298.15 K	303.15 K	308.15 K
x1 = 0.001	65.3 ± 1	65 ± 1	63.8 ± 1	62.8 ± 1	62.3 ± 1	61.2 ± 1
x1 = 0.0021	58.3 ± 1	57.6 ± 1	56.9 ± 1	56.1 ± 1	55.7 ± 1	55 ± 1
x1 = 0.0037	55.3 ± 1	54.7 ± 1	54.2 ± 1	53.6 ± 1	52.9 ± 0.9	52.4 ± 0.9
x1 = 0.0053	53 ± 0.9	52.5 ± 0.9	51.7 ± 0.9	51.2 ± 0.9	50.6 ± 0.9	50.3 ± 0.9
x1 = 0.0071	51 ± 0.9	50.4 ± 0.9	49.9 ± 0.9	49.3 ± 0.9	48.8 ± 0.9	48.5 ± 0.9
x1 = 0.0089	50 ± 0.9	49.2 ± 0.9	48.6 ± 0.9	47.9 ± 0.9	47.3 ± 0.9	47 ± 0.9
x1 = 0.0111	47.5 ± 0.9	46.7 ± 0.9	46.4 ± 0.9	46 ± 0.9	45.7 ± 0.9	45 ± 0.9
x1 = 0.0145	45.3 ± 0.9	44.7 ± 0.9	44.5 ± 0.9	43.8 ± 0.9	43.4 ± 0.9	42.9 ± 0.9
x1 = 0.0194	43 ± 0.9	42.2 ± 0.9	41.3 ± 0.9	40.3 ± 0.9	39.8 ± 0.9	38.6 ± 0.9
x1 = 0.0324	39.7 ± 0.9	39.1 ± 0.9	38.6 ± 0.9	38 ± 0.9	37.5 ± 0.9	37 ± 0.8
x1 = 0.0507	38 ± 0.9	37.3 ± 0.9	36.9 ± 0.8	36.6 ± 0.8	35.7 ± 0.8	35 ± 0.8
x1 = 0.0738	36.9 ± 0.8	36.5 ± 0.8	36.1 ± 0.8	35.8 ± 0.8	34.9 ± 0.8	34.4 ± 0.8
x1 = 1	34.6 ± 0.9	34.3 ± 0.8	34.1 ± 0.8	33.9 ± 0.8	33.7 ± 0.8	33.5 ± 0.8

OCCCCCCO [1,6-hexanediol] + O
surface tension liquid-gas [mN/m], [1]
Conditions	283.15 K	288.15 K	293.15 K	298.15 K	303.15 K	308.15 K
x1 = 0.0013	63.8 ± 1	63.1 ± 1	62.3 ± 1	62 ± 1	61.1 ± 1	60.6 ± 1
x1 = 0.0017	62.5 ± 1	61.8 ± 1	61.2 ± 1	60.4 ± 1	59.7 ± 1	58.8 ± 1
x1 = 0.0021	61.5 ± 1	60.7 ± 1	60.3 ± 1	59.4 ± 1	58.5 ± 1	57.6 ± 1
x1 = 0.0029	60 ± 1	59.2 ± 1	58.6 ± 1	57.5 ± 1	56.8 ± 1	56 ± 1
x1 = 0.0057	56.9 ± 1	55.7 ± 1	55 ± 1	53.8 ± 1	53.3 ± 1	52.4 ± 0.9
x1 = 0.007	55.1 ± 1	54.3 ± 1	53.4 ± 1	52.1 ± 0.9	51.7 ± 0.9	50.9 ± 0.9
x1 = 0.0089	53.3 ± 1	52.4 ± 0.9	51.4 ± 0.9	50.2 ± 0.9	50 ± 0.9	49.4 ± 0.9
x1 = 0.014	50.6 ± 0.9	49.4 ± 0.9	49.1 ± 0.9	48.3 ± 0.9	48.3 ± 0.9	47.2 ± 0.9
x1 = 0.0159	49.4 ± 0.9	48.6 ± 0.9	48 ± 0.9	47.5 ± 0.9	47 ± 0.9	46.6 ± 0.9
x1 = 0.0237	48.5 ± 0.9	47.6 ± 0.9	47 ± 0.9	46.5 ± 0.9	46.1 ± 0.9	45.8 ± 0.9
x1 = 0.0373	46.1 ± 0.9	45.7 ± 0.9	45.4 ± 0.9	45 ± 0.9	44.5 ± 0.9	44.2 ± 0.9
x1 = 0.0463	44.4 ± 0.9	44.1 ± 0.9	43.9 ± 0.9	43.6 ± 0.9	43.3 ± 0.9	43 ± 0.9
x1 = 0.0545	43.7 ± 0.9	43.4 ± 0.9	43.2 ± 0.9	42.9 ± 0.9	42.5 ± 0.9	42.2 ± 0.9
x1 = 0.0742	43.5 ± 0.9	43.3 ± 0.9	43 ± 0.9	42.8 ± 0.9	42.4 ± 0.9	42.1 ± 0.9
x1 = 0.098	43.4 ± 0.9	43.1 ± 0.9	42.9 ± 0.9	42.7 ± 0.9	42.4 ± 0.9	42.1 ± 0.9
x1 = 0.1165	43.4 ± 0.9	43.1 ± 0.9	42.8 ± 0.9	42.6 ± 0.9	42.3 ± 0.9	42 ± 0.9

CC(O)CCC(C)O (stereo unspecified) [2,5-hexanediol]
Conditions	surface tension liquid-gas [mN/m]
283.15 K	32.3 ± 0.8
288.15 K	32 ± 0.8
293.15 K	31.9 ± 0.8
298.15 K	31.6 ± 0.8
303.15 K	31.3 ± 0.8
308.15 K	31 ± 0.8

CC(O)CCC(C)O (stereo unspecified) [2,5-hexanediol] + O
surface tension liquid-gas [mN/m], [1]
Conditions	283.15 K	288.15 K	293.15 K	298.15 K	303.15 K	308.15 K
x1 = 0.001	68.5 ± 1.1	67.9 ± 1	67.7 ± 1	67.2 ± 1	66.6 ± 1	65.9 ± 1
x1 = 0.0027	60.2 ± 1	59.6 ± 1	59.1 ± 1	58.6 ± 1	57.9 ± 1	57.3 ± 1
x1 = 0.0037	56.9 ± 1	56.3 ± 1	55.6 ± 1	55.2 ± 1	54.7 ± 1	54.2 ± 1
x1 = 0.0068	53.5 ± 1	52.9 ± 0.9	52.3 ± 0.9	51.6 ± 0.9	51.2 ± 0.9	50.7 ± 0.9
x1 = 0.0088	51.6 ± 0.9	51 ± 0.9	50.3 ± 0.9	49.5 ± 0.9	48.6 ± 0.9	48 ± 0.9
x1 = 0.0103	50 ± 0.9	49.4 ± 0.9	49.2 ± 0.9	48.7 ± 0.9	48.2 ± 0.9	47.8 ± 0.9
x1 = 0.0135	47.9 ± 0.9	47.5 ± 0.9	47.2 ± 0.9	46.8 ± 0.9	46.3 ± 0.9	45.8 ± 0.9
x1 = 0.0168	46.1 ± 0.9	45.7 ± 0.9	45.5 ± 0.9	45.2 ± 0.9	44.9 ± 0.9	44.6 ± 0.9
x1 = 0.0263	43.4 ± 0.9	43.2 ± 0.9	42.7 ± 0.9	42.1 ± 0.9	41.6 ± 0.9	41.3 ± 0.9
x1 = 0.037	41.5 ± 0.9	41.1 ± 0.9	40.4 ± 0.9	40 ± 0.9	39.7 ± 0.9	39.2 ± 0.9
x1 = 0.0462	40.4 ± 0.9	40.1 ± 0.9	39.7 ± 0.9	39 ± 0.9	38.7 ± 0.9	38.2 ± 0.9
x1 = 0.063	39.1 ± 0.9	38.6 ± 0.9	38.1 ± 0.9	37.4 ± 0.9	37.1 ± 0.8	36.6 ± 0.8
x1 = 0.0808	38.5 ± 0.9	38 ± 0.9	37.5 ± 0.9	37 ± 0.8	36.5 ± 0.8	36.2 ± 0.8
x1 = 0.096	38.3 ± 0.9	37.8 ± 0.9	37.3 ± 0.9	36.8 ± 0.8	36.3 ± 0.8	36 ± 0.8
x1 = 0.1117	37.7 ± 0.9	37.2 ± 0.9	36.9 ± 0.8	36.2 ± 0.8	35.9 ± 0.8	35.6 ± 0.8
x1 = 1	32.3 ± 0.8	32 ± 0.8	31.9 ± 0.8	31.6 ± 0.8	31.3 ± 0.8	31 ± 0.8

O [water]
Conditions	surface tension liquid-gas [mN/m]
283.15 K	74.1 ± 1.1
288.15 K	73.4 ± 1.1
293.15 K	72.6 ± 1.1
298.15 K	71.8 ± 1.1
303.15 K	71 ± 1.1
308.15 K	70.2 ± 1.1

O [water] + CC(O)CCC(C)O
[1], x2 = 0
Conditions	surface tension liquid-gas [mN/m]
283.15 K	74.1 ± 1.1
288.15 K	73.4 ± 1.1
293.15 K	72.6 ± 1.1
298.15 K	71.8 ± 1.1
303.15 K	71 ± 1.1
308.15 K	70.2 ± 1.1

O [water] + CC(O)CCCCO
[1], x2 = 0
Conditions	surface tension liquid-gas [mN/m]
283.15 K	74.1 ± 1.1
288.15 K	73.4 ± 1.1
293.15 K	72.6 ± 1.1
298.15 K	71.8 ± 1.1
303.15 K	71 ± 1.1
308.15 K	70.2 ± 1.1

O [water] + CCCCC(O)CO
[1], x2 = 0
Conditions	surface tension liquid-gas [mN/m]
283.15 K	74.1 ± 1.1
288.15 K	73.4 ± 1.1
293.15 K	72.6 ± 1.1
298.15 K	71.8 ± 1.1
303.15 K	71 ± 1.1
308.15 K	70.2 ± 1.1

O [water] + OCCCCCCO
[1], x2 = 0
Conditions	surface tension liquid-gas [mN/m]
283.15 K	74.1 ± 1.1
288.15 K	73.4 ± 1.1
293.15 K	72.6 ± 1.1
298.15 K	71.8 ± 1.1
303.15 K	71 ± 1.1
308.15 K	70.2 ± 1.1
